Experimental data as given in patent publication US8058475B2, “Substituted cyclohexylmethyl compounds” (Gruenenthal GmbH, priority 2005, dated 2011).
Counter-ions that a name gives are not always drawn. Like-named read-outs stand apart in the source and are kept apart here.

Key:
human μ-opiate receptor = human μ-opiate receptor (Homo sapiens, UniProt P35372); assay: Affinity for the human μ-opiate receptor ([3H]-naloxone displacement, SPA, CHO-K1 membrane preparation); type: binding; settings: for inhibition at 1 µM: read-out: μ-Opioid receptor, % inhibition [1 μM]; for Ki: read-out: μ-Opioid receptor, Ki
human μ-opiate receptor, sequence (P35372 whole entry): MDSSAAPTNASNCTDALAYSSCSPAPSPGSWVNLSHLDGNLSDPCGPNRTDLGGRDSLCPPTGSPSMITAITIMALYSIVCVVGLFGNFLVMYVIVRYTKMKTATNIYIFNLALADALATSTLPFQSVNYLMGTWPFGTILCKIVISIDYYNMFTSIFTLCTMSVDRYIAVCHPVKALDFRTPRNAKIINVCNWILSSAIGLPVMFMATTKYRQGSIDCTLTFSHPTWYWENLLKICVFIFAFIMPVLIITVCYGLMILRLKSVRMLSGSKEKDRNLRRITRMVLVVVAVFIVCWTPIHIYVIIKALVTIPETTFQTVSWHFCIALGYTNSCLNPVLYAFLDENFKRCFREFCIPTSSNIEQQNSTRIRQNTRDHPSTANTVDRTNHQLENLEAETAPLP

[1] = target: T1, Noradrenaline (NA) reuptake (Rattus norvegicus, UniProt Q63380); assay: Noradrenaline (NA) reuptake inhibition in rat brain synaptosomes (hypothalamus, P2 fraction); type: biochemical
T1 construct: synaptosomes are freshly isolated from areas of rat brain; from tissue; host or cells: rat hypothalamus synaptosomes (P2 fraction)
T1 sequence (Q63380 1-617): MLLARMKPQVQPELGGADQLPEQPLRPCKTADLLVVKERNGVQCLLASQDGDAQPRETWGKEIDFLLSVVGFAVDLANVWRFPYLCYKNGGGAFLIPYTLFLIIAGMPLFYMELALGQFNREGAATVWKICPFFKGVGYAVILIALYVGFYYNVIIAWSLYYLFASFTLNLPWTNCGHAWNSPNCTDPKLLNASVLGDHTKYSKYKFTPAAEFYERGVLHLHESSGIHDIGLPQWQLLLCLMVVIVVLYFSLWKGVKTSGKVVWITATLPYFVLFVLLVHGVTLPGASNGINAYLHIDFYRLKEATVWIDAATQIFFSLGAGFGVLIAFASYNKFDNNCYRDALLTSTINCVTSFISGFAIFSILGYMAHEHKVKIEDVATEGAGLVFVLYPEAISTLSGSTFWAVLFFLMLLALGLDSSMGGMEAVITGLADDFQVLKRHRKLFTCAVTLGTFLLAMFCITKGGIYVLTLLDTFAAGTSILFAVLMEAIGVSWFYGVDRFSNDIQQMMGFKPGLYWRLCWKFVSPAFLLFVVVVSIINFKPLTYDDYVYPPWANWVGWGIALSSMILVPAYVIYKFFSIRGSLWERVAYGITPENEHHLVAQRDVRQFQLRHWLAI
Excerpt: (§1) Noradrenaline (NA) and Serotonin (5HT) Reuptake Inhibition
(§2) In order to be able to carry out these studies in vitro, synaptosomes are freshly isolated from areas of rat brain. A so-called “P2” fraction prepared by the method of Gray and Whittaker (E. G. Gray and V. P. Whittaker (1962) J. Anat. 76, 79-88) is used in each case. For the NA uptake, these vesicular particles are isolated from the hypothalamus of male rat brains.
(§3) A detailed description of the method will be found in the literature (M. Ch. Frink, H. H. Hennies, W. Englberger, M. Haurand and B. Wilffert (1996) Arzneim.-Forsch./Drug Res. 46 (III), 11, 1029-1036).

Serotonin (5HT) reuptake = target: T2, Serotonin (5HT) reuptake (Rattus norvegicus, UniProt P31652); assay: Serotonin (5HT) reuptake inhibition in rat brain synaptosomes (P2 fraction); type: biochemical; settings: for inhibition at 10 µM: read-out: Serotonin reuptake, % inhibition [10 μM]
T2 construct: synaptosomes are freshly isolated from areas of rat brain; from tissue; host or cells: rat brain synaptosomes (P2 fraction)
T2 sequence (P31652 whole entry): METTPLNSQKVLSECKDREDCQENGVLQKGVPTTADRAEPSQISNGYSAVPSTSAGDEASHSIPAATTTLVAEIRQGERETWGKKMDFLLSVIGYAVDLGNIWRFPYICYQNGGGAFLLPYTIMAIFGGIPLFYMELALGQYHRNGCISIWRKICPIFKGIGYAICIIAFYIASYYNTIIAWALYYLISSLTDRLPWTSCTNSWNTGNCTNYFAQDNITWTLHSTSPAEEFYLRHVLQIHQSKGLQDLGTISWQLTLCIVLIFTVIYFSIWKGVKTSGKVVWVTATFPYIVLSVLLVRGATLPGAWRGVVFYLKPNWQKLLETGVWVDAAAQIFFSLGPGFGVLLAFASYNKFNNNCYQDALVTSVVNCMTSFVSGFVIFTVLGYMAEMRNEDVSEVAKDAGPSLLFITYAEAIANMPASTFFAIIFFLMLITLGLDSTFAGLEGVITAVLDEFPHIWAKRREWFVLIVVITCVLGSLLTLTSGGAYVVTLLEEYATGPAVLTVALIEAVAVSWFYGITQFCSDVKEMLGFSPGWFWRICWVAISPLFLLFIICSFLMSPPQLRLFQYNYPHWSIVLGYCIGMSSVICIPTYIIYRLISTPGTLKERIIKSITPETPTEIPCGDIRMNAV
Excerpt: as §1, §2, §3

[2] = 1 μM test substance, inhibition of specific [3H]-naloxone binding
[3] = read-out: NA reuptake, % inhibition [10 μM]

SMILES | inhibition at 1 µM (human μ-opiate receptor; [2]) [%] | inhibition at 10 µM [1, 3] [%] | inhibition at 10 µM (Serotonin (5HT) reuptake) [%] | Ki (human μ-opiate receptor) [nM] | further results
CN(C)C(c1ccc(Cl)cc1)C1CCC(O)CC1 (stereo not shown) [compound 114, 4-[(4-chlorophenyl)-dimethylamino-methyl]-cyclohexanol] | 43 | 93 | 64 |  | 
CN(C)C(c1ccccc1)C1CCC(NCCc2c[nH]c3ccccc23)CC1 (stereo not shown) [compound 83, N-(2-(1H-indol-3-yl)ethyl)-4-((dimethylamino)(phenyl)methyl)-cyclohexanamine hydrochloride] | 95 | 100 | 93 | 7 | 
CN(C)C(c1ccc(Cl)cc1)C1CCC(CN)CC1 (stereo not shown) [compound 39, [(4-aminomethyl-cyclohexyl)-(4-chlorophenyl)-methyl]-dimethylamine] | 56 | 97 | 87 |  | 
CN(C)C(c1ccccc1)C1CCC(NCCCc2ccccc2)CC1 (stereo not shown) [compound 85, 4-((dimethylamino)(phenyl)methyl)-N-(3-phenylpropyl)cyclohexanamine dihydrochloride] | 98 | 103 | 77 | 2.8 | 
CN(C)C(c1ccccc1)C1CCC(CC=O)CC1 (stereo not shown) [compound 46, [4-(Dimethylamino-phenyl-methyl)-cyclohexyl]-acetaldehyde] | 75 | 95 | 92 |  | 
CN(C)C(c1ccccc1)C1CCC(NS(=O)(=O)c2ccccc2[N+](=O)[O-])CC1 (stereo not shown) [compound 109, N-(4-((dimethylamino)(phenyl)methyl)cyclohexyl)-2-nitrobenzene-sulfonamide hydrochloride] |  | 76 | 93 |  | inhibition at 1 µM (human μ-opiate receptor; 1 μM, sulfonamides (Table 17)): 92%; Ki (human μ-opiate receptor; sulfonamides (Table 17)): 77 nM
CN(C)C(c1ccc(F)cc1)C1CCC(CO)CC1 (stereo not shown) [compound 118, {4-[dimethylamino-(4-fluorophenyl)-methyl]-cyclohexyl}-methanol] | 33 | 91 | 90 |  | 
CC(=O)N(Cc1ccccc1)C1CCC(C(c2ccccc2)N(C)C)CC1 (stereo not shown) [compound 100, N-benzyl-N-(4-((dimethylamino)(phenyl)methyl)cyclohexyl)acetamide hydrochloride] |  |  | 86 | 3.5 | inhibition at 1 µM (human μ-opiate receptor): 100%; Ki [1]: 320 nM; inhibition at 10 µM ([1]; read-out: Na reuptake, % inhibition [10 μM]): 91%; Ki (Serotonin (5HT) reuptake): 520 nM
CCOC(=O)CC1CCC(C(c2ccccc2)N(C)C)CC1 (stereo not shown) [compound 124, [4-(dimethylamino-phenyl-methyl)-cyclohexyl]-acetic acid ethyl ester] | 79 | 76 | 85 | 79 | Ki (Serotonin (5HT) reuptake): 97 nM
CCOC(=O)CCC1CCC(C(c2cccc(F)c2)N(C)C)CC1 (stereo not shown) [compound 139, 3-{4-[dimethylamino-(3-fluorophenyl)-methyl]-cyclohexyl}-propionic acid ethyl ester] | 90 | 94 | 89 | 44 | Ki [1]: 790 nM; Ki (Serotonin (5HT) reuptake): 58 nM
CN(C)C(CCc1ccccc1)C1CCC(CCCO)CC1 (stereo not shown) [compound 143, 3-[4-(1-dimethylamino-3-phenyl-propyl)-cyclohexyl]-propan-1-ol] | 24 | 100 | 90 |  | 
CN(C)C(c1cccc(F)c1)C1CCC(C=O)CC1 (stereo not shown) [compound 34, 4-[Dimethylamino-(3-fluorophenyl)-methyl]-cyclohexane-carbaldehyde] | 34 | 87 | 87 |  | 
CCOC(=O)CCC1CCC(C(c2ccccc2)N(C)C)CC1 (stereo not shown) [compound 133, 3-[4-(dimethylamino-phenyl-methyl)-cyclohexyl]-propionic acid ethyl ester] | 81 | 87 | 89 | 96 | Ki (Serotonin (5HT) reuptake): 99 nM
CN(C)C(c1ccccc1)C1CCC(CCO)CC1 (stereo not shown) [compound 125, 2-[4-(dimethylamino-phenyl-methyl)-cyclohexyl]-ethanol] | 62 | 86 | 82 |  | 
CN(C)C(c1ccc(F)cc1)C1CCC(CCO)CC1 (stereo not shown) [compound 128, 2-{4-[dimethylamino-(4-fluorophenyl)-methyl]-cyclohexyl}-ethanol] | 18 | 88 | 84 |  | 
CN(C)C(c1ccc(Cl)cc1)C1CCC(CCN)CC1 (stereo not shown) [compound 66, 2-{4-[dimethylamino-(4-chlorophenyl)-methyl]-cyclohexyl}-ethylamine] | 62 | 96 | 96 |  | 

SMILES | inhibition at 1 µM (human μ-opiate receptor; [2]) [%] | inhibition at 10 µM [1, 3] [%] | inhibition at 10 µM (Serotonin (5HT) reuptake) [%] | Ki (human μ-opiate receptor) [nM] | further results
CN(C)C(CCc1ccccc1)C1CCC(O)CC1 (stereo not shown) [compound 116, 4-(1-dimethylamino-3-phenyl-propyl)-cyclohexanol] | 37 | 95 | 74 |  | 
COc1ccc(CNC2CCC(C(c3ccccc3)N(C)C)CC2)cc1 (stereo not shown) [compound 90, 4-((dimethylamino)(phenyl)methyl)-N-(4-methoxybenzyl)cyclohexanamine dihydrochloride] | 94 | 98 | 87 | 45 | 
CCOC(=O)C=C1CCC(C(c2cccc(F)c2)N(C)C)CC1 (stereo not shown) [compound 129, {4-[dimethylamino-(3-fluorophenyl)-methyl]-cyclohexylidene}-acetic acid ethyl ester] | 47 | 81 | 91 | 540 | Ki (Serotonin (5HT) reuptake): 86 nM
CCOC(=O)CC1CCC(C(c2ccc(F)cc2)N(C)C)CC1 (stereo not shown) [compound 127, {4-[dimethylamino-(4-fluorophenyl)-methyl]-cyclohexyl}-acetic acid ethyl ester] | 34 | 89 | 90 |  | 
CN(C)C(c1ccccc1)C1CCC(NCCc2ccccc2)CC1 (stereo not shown) [compound 84, 4-((dimethylamino)(phenyl)methyl)-N-phenethylcyclohexanamine hydrochloride] | 95 | 93 | 76 | 12 | 
CN(C)C(c1ccccc1)C1CCC(NC(=O)Nc2ccccc2[N+](=O)[O-])CC1 (stereo not shown) [compound 76, 1-(4-((dimethylamino)(phenyl)methyl)cyclohexyl)-3-(2-nitrophenyl)urea hydrochloride] | 61 | 100 | 84 |  | 
COc1ccc(NC(=O)NC2CCC(C(c3ccccc3)N(C)C)CC2)cc1 (stereo not shown) [compound 82, 1-(4-((dimethylamino)(phenyl)methyl)cyclohexyl)-3-(4-methoxyphenyl)urea] | 92 | 98 | 98 | 190 | Ki [1]: 120 nM; Ki (Serotonin (5HT) reuptake): 110 nM
CN(C)C(c1cccc(F)c1)C1CCC(N)CC1 (stereo not shown) [compound 21, 4-[dimethylamino-(3-fluorophenyl)-methyl]-cyclohexylamine] | 48 | 90 | 80 |  | 
CN(C)C(c1cccc(F)c1)C1CCC(CCN)CC1 (stereo not shown) [compound 54, 2-{4-[dimethylamino-(3-fluorophenyl)-methyl]-cyclohexyl}-ethylamine] | 62 | 102 | 94 |  | 
CN(C)C(CCc1ccccc1)C1CCC(CCN)CC1 (stereo not shown) [compound 72, {1-[4-(2-amino-ethyl)-cyclohexyl]-3-phenyl-propyl}-dimethylamine] |  | 91 | 79 |  | 
CN(C)C(c1ccc(F)cc1)C1CCC(CN)CC1 (stereo not shown) [compound 33, [(4-aminomethyl-cyclohexyl)-(4-fluorophenyl)-methyl]-dimethylamine] |  | 94 | 95 |  | 
CN(C)C(c1cccs1)C1CCC(C=O)CC1 (stereo not shown) [compound 40, 4-(Dimethylamino-thiophen-2-yl-methyl)-cyclohexanecarbaldehyde] |  | 77 | 78 |  | 
COc1cccc(NC(=O)CC2CCC(C(Cc3ccccc3)N3CCCC3)CC2)c1 (stereo not shown) [compound 492, N-(3-methoxyphenyl)-2-(4-(2-phenyl-1-(pyrrolidin-1-yl)ethyl)cyclohexyl)-acetamide] |  | 54 | 3 |  | 
CN(C)C(c1ccc(Cl)cc1)C1CCC(CC=O)CC1 (stereo not shown) [compound 55, {4-[(4-Chlorophenyl)-dimethylamino-methyl]-cyclohexyl}-acetaldehyde] |  | 95 | 88 |  | 
CN(C)C(CCc1ccccc1)C1CCC(C=O)CC1 (stereo not shown) [compound 43, 4-(1-Dimethylamino-3-phenyl-propyl)-cyclohexane-carbaldehyde] |  | 98 | 80 |  | 
CN(C)C(c1ccc(F)cc1)C1CCC(N)CC1 (stereo not shown) [compound 19, 4-[dimethylamino-(4-fluorophenyl)-methyl]-cyclohexylamine] |  | 93 | 87 |  | 
